# Experimental data published in PubChem BioAssay (NCI).
#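 Tested at 5 concentrations; 48 h exposure; 96-well plates; endpoints linearly interpolated, else capped at highest concentration. GI50 = concentration required for 50% inhibition of growth. TGI denotes the concentration required for complete inhibition of growth.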
# What was measured:
# Test in all cases: DTP human tumour cell line panel, 48 h
# BT-549 breast = system: BT-549 breast
# NCI/ADR-RES ovarian = system: NCI/ADR-RES ovarian
# OVCAR-4 ovarian = system: OVCAR-4 ovarian
# HOP-62 NSCLC = system: HOP-62 NSCLC
# 786-0 renal = system: 786-0 renal
# COLO 205 colon = system: COLO 205 colon
# NCI-H460 lung = system: NCI-H460 lung
# MCF7 breast = system: MCF7 breast
# M14 melanoma = system: M14 melanoma
# ACHN renal = system: ACHN renal
# OVCAR-8 ovarian = system: OVCAR-8 ovarian
# SW-620 colon = system: SW-620 colon
# OVCAR-5 ovarian = system: OVCAR-5 ovarian
# MALME-3M melanoma = system: MALME-3M melanoma
# A549 NSCLC = system: A549 NSCLC
# LOX IMVI melanoma = system: LOX IMVI melanoma
# HT29 colon = system: HT29 colon
# PC-3 prostate = system: PC-3 prostate
# MDA-MB-435 = system: MDA-MB-435
# HOP-92 NSCLC = system: HOP-92 NSCLC
# KM12 colon = system: KM12 colon
# NCI-H522 lung = system: NCI-H522 lung
# HCT-15 colon = system: HCT-15 colon
# K-562 leukemia = system: K-562 leukemia
# HCT-116 colon = system: HCT-116 colon
# MDA-MB-231 breast = system: MDA-MB-231 breast
# SK-OV-3 ovarian = system: SK-OV-3 ovarian
# DU-145 prostate = system: DU-145 prostate
# A498 renal = system: A498 renal
# SK-MEL-28 melanoma = system: SK-MEL-28 melanoma
# NCI-H23 lung = system: NCI-H23 lung
# UO-31 renal = system: UO-31 renal
# HL-60(TB) leukemia = system: HL-60(TB) leukemia
# SF-268 CNS = system: SF-268 CNS
# NCI-H226 lung = system: NCI-H226 lung
# IGROV1 ovarian = system: IGROV1 ovarian
# EKVX NSCLC = system: EKVX NSCLC
# TK-10 renal = system: TK-10 renal
# HCC-2998 colon = system: HCC-2998 colon
# RXF 393 renal = system: RXF 393 renal
# SF-539 CNS = system: SF-539 CNS
# CAKI-1 renal = system: CAKI-1 renal
# SK-MEL-2 melanoma = system: SK-MEL-2 melanoma
# UACC-62 melanoma = system: UACC-62 melanoma
# UACC-257 melanoma = system: UACC-257 melanoma
# T-47D breast = system: T-47D breast
# SR leukemia = system: SR leukemia
# SN12C renal = system: SN12C renal
# SF-295 CNS = system: SF-295 CNS
# HS 578T breast = system: HS 578T breast
# U251 CNS = system: U251 CNS
# OVCAR-3 ovarian = system: OVCAR-3 ovarian
# SK-MEL-5 melanoma = system: SK-MEL-5 melanoma
# SNB-19 CNS = system: SNB-19 CNS
# MOLT-4 leukemia = system: MOLT-4 leukemia
# CCRF-CEM leukemia = system: CCRF-CEM leukemia
# SNB-75 CNS = system: SNB-75 CNS
# RPMI-8226 leukemia = system: RPMI-8226 leukemia
structure (smiles),measurement,setting,value
OCC#Cc1ccccc1C#CCCCCCCC#Cc1ccccc1C#CCO,GI50,BT-549 breast,20.2 µM
same,TGI,BT-549 breast,37.9 µM
same,GI50,NCI/ADR-RES ovarian,17.7 µM
same,TGI,NCI/ADR-RES ovarian,33 µM
same,GI50,OVCAR-4 ovarian,18.4 µM
same,TGI,OVCAR-4 ovarian,45.6 µM
same,GI50,HOP-62 NSCLC,9.78 µM
same,TGI,HOP-62 NSCLC,25.8 µM
same,GI50,786-0 renal,17.3 µM
same,TGI,786-0 renal,31.1 µM
same,GI50,COLO 205 colon,18.8 µM
same,TGI,COLO 205 colon,36.4 µM
same,GI50,NCI-H460 lung,20.5 µM
same,TGI,NCI-H460 lung,47.4 µM
same,GI50,MCF7 breast,18.4 µM
same,TGI,MCF7 breast,40.7 µM
same,GI50,M14 melanoma,5.64 µM
same,TGI,M14 melanoma,22.9 µM
same,GI50,ACHN renal,17.4 µM
same,TGI,ACHN renal,31.5 µM
same,GI50,OVCAR-8 ovarian,17 µM
same,TGI,OVCAR-8 ovarian,35.8 µM
same,GI50,SW-620 colon,22.2 µM
same,TGI,SW-620 colon,41.6 µM
same,GI50,OVCAR-5 ovarian,17 µM
same,TGI,OVCAR-5 ovarian,30.7 µM
same,GI50,MALME-3M melanoma,15.7 µM
same,TGI,MALME-3M melanoma,30.1 µM
same,GI50,A549 NSCLC,17.2 µM
same,TGI,A549 NSCLC,33.9 µM
same,GI50,LOX IMVI melanoma,18 µM
same,TGI,LOX IMVI melanoma,34.7 µM
same,GI50,HT29 colon,22.7 µM
same,TGI,HT29 colon,> 75.9 µM
same,GI50,PC-3 prostate,15.9 µM
same,TGI,PC-3 prostate,33.3 µM
same,GI50,MDA-MB-435,18.1 µM
same,TGI,MDA-MB-435,34.1 µM
same,GI50,HOP-92 NSCLC,13.1 µM
same,TGI,HOP-92 NSCLC,26.5 µM
same,GI50,KM12 colon,18.1 µM
same,TGI,KM12 colon,37.1 µM
same,GI50,NCI-H522 lung,0.882 µM
same,GI50,HCT-15 colon,23.2 µM
same,TGI,HCT-15 colon,59.6 µM
same,GI50,K-562 leukemia,15.8 µM
same,TGI,K-562 leukemia,40.8 µM
same,GI50,HCT-116 colon,10.7 µM
same,TGI,HCT-116 colon,24.5 µM
same,GI50,MDA-MB-231 breast,9.97 µM
same,TGI,MDA-MB-231 breast,24.8 µM
same,GI50,SK-OV-3 ovarian,15.8 µM
same,TGI,SK-OV-3 ovarian,30.5 µM
same,GI50,DU-145 prostate,19.1 µM
same,TGI,DU-145 prostate,35.1 µM
same,GI50,A498 renal,21.5 µM
same,TGI,A498 renal,36.1 µM
same,GI50,SK-MEL-28 melanoma,23.6 µM
same,TGI,SK-MEL-28 melanoma,62.2 µM
same,GI50,NCI-H23 lung,17.1 µM
same,TGI,NCI-H23 lung,30.9 µM
same,GI50,UO-31 renal,24 µM
same,TGI,UO-31 renal,> 53.1 µM
same,GI50,HL-60(TB) leukemia,25.2 µM
same,TGI,HL-60(TB) leukemia,48.5 µM
same,GI50,SF-268 CNS,16.2 µM
same,TGI,SF-268 CNS,32.5 µM
same,GI50,NCI-H226 lung,16.4 µM
same,TGI,NCI-H226 lung,33.1 µM
same,GI50,IGROV1 ovarian,7.97 µM
same,TGI,IGROV1 ovarian,44.3 µM
same,GI50,EKVX NSCLC,17.5 µM
same,TGI,EKVX NSCLC,32.7 µM
same,GI50,TK-10 renal,19.2 µM
same,TGI,TK-10 renal,34.2 µM
same,GI50,HCC-2998 colon,17.7 µM
same,TGI,HCC-2998 colon,31.5 µM
same,GI50,RXF 393 renal,16.8 µM
same,TGI,RXF 393 renal,33.6 µM
same,GI50,SF-539 CNS,18.7 µM
same,TGI,SF-539 CNS,32.8 µM
same,GI50,CAKI-1 renal,17.4 µM
same,TGI,CAKI-1 renal,32.8 µM
same,GI50,SK-MEL-2 melanoma,34.6 µM
same,TGI,SK-MEL-2 melanoma,> 100 µM
same,GI50,UACC-62 melanoma,16.8 µM
same,TGI,UACC-62 melanoma,31.4 µM
same,GI50,UACC-257 melanoma,18.9 µM
same,TGI,UACC-257 melanoma,34.5 µM
same,GI50,T-47D breast,18.1 µM
same,TGI,T-47D breast,33.7 µM
same,GI50,SR leukemia,16 µM
same,TGI,SR leukemia,34.6 µM
same,GI50,SN12C renal,15.8 µM
same,TGI,SN12C renal,31.1 µM
same,GI50,SF-295 CNS,14.6 µM
same,TGI,SF-295 CNS,28.6 µM
same,GI50,HS 578T breast,18.2 µM
same,TGI,HS 578T breast,39.1 µM
same,GI50,U251 CNS,18.2 µM
same,TGI,U251 CNS,34.1 µM
same,GI50,OVCAR-3 ovarian,18.3 µM
same,TGI,OVCAR-3 ovarian,33.4 µM
same,GI50,SK-MEL-5 melanoma,17 µM
same,TGI,SK-MEL-5 melanoma,31.3 µM
same,GI50,SNB-19 CNS,18.6 µM
same,TGI,SNB-19 CNS,34.2 µM
same,GI50,MOLT-4 leukemia,11.1 µM
same,TGI,MOLT-4 leukemia,30.8 µM
COc1ccc2c(-c3ccc(OCCN(C)C)cc3)c(Oc3ccccc3)c(=O)oc2c1,TGI,BT-549 breast,24.4 µM
same,TGI,NCI/ADR-RES ovarian,20.4 µM
same,TGI,OVCAR-4 ovarian,40.7 µM
same,TGI,HOP-62 NSCLC,27.3 µM
same,TGI,786-0 renal,8.68 µM
same,TGI,COLO 205 colon,9.59 µM
same,TGI,NCI-H460 lung,22.2 µM
same,TGI,MCF7 breast,15.3 µM
same,TGI,M14 melanoma,3.08 µM
same,TGI,ACHN renal,22 µM
same,TGI,OVCAR-8 ovarian,26.2 µM
same,TGI,SW-620 colon,16.7 µM
same,TGI,OVCAR-5 ovarian,28.2 µM
same,TGI,MALME-3M melanoma,11.6 µM
same,TGI,A549 NSCLC,10.4 µM
same,TGI,LOX IMVI melanoma,26.6 µM
same,TGI,HT29 colon,22.4 µM
same,TGI,PC-3 prostate,18.9 µM
same,TGI,MDA-MB-435,7.12 µM
same,TGI,HOP-92 NSCLC,25.8 µM
same,TGI,KM12 colon,> 39.4 µM
same,TGI,NCI-H522 lung,11.3 µM
same,TGI,HCT-15 colon,14.6 µM
same,TGI,K-562 leukemia,12.4 µM
same,TGI,HCT-116 colon,8.79 µM
same,TGI,MDA-MB-231 breast,10.2 µM
same,TGI,CCRF-CEM leukemia,10.1 µM
same,TGI,SK-OV-3 ovarian,18.1 µM
same,TGI,DU-145 prostate,27.6 µM
same,TGI,A498 renal,26.8 µM
same,TGI,SK-MEL-28 melanoma,5.53 µM
same,TGI,NCI-H23 lung,28.8 µM
same,TGI,SNB-75 CNS,21.6 µM
same,TGI,UO-31 renal,13.9 µM
same,TGI,SF-268 CNS,18.9 µM
same,TGI,NCI-H226 lung,40 µM
same,TGI,IGROV1 ovarian,19.1 µM
same,TGI,EKVX NSCLC,23.5 µM
same,TGI,TK-10 renal,23 µM
same,TGI,HCC-2998 colon,10.3 µM
same,TGI,RXF 393 renal,20.5 µM
same,TGI,SF-539 CNS,16.7 µM
same,TGI,CAKI-1 renal,25.1 µM
same,TGI,SK-MEL-2 melanoma,13.9 µM
same,TGI,UACC-62 melanoma,9.82 µM
same,TGI,UACC-257 melanoma,4.52 µM
same,TGI,T-47D breast,> 59.9 µM
same,TGI,SR leukemia,5.17 µM
same,TGI,SN12C renal,18.7 µM
same,TGI,SF-295 CNS,8.91 µM
same,TGI,HS 578T breast,21.5 µM
same,TGI,U251 CNS,8.9 µM
same,TGI,OVCAR-3 ovarian,21.2 µM
same,TGI,RPMI-8226 leukemia,15.5 µM
same,TGI,SK-MEL-5 melanoma,5.89 µM
same,TGI,SNB-19 CNS,17.2 µM
same,TGI,MOLT-4 leukemia,11.8 µM
